According to US9988400B2 (Genentech, Inc., priority 2013, dated 2018):

Biological target: T1, HEK cells stably transfected with tetracycline inducible hNR1 and hNR2A (Homo sapiens, UniProt Q05586+Q12879)
T1 construct: expressed in transfected cells; host or cells: HEK cells, stably transfected, tetracycline/doxycycline inducible
Assay: Assay 1: Cell-Based Assay, cytosolic calcium response to positive allosteric modulators (with 30 μM glycine and 300 nM L-glutamate, EC30)
Details: for EC50: cytosolic calcium response, with 30 μM glycine and 300 nM L-glutamate (EC30), — = no plateau was reached; for Max %: responses scaled relative to 100 μM L-glutamate maximal response (100%) and 0 μM L-glutamate (0%)
In short: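 Cells induced 24 h with 7.5 μg mL^−1 doxycycline plus 500 μM (+)-ketamine, loaded 60 min at 37 °C with calcium dye in Mg-free HBSS (1.8 mM Ca, probenecid, 10 μM (+)-ketamine, pH 7.15). Peak RFU over 5 min after compound addition, scaled to 100 μM L-glutamate (100%) and 0 μM (0%); four-parameter Hill fit for EC50, max % if no plateau.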

T1 sequence (Q12879 23-1464, other chains not shown): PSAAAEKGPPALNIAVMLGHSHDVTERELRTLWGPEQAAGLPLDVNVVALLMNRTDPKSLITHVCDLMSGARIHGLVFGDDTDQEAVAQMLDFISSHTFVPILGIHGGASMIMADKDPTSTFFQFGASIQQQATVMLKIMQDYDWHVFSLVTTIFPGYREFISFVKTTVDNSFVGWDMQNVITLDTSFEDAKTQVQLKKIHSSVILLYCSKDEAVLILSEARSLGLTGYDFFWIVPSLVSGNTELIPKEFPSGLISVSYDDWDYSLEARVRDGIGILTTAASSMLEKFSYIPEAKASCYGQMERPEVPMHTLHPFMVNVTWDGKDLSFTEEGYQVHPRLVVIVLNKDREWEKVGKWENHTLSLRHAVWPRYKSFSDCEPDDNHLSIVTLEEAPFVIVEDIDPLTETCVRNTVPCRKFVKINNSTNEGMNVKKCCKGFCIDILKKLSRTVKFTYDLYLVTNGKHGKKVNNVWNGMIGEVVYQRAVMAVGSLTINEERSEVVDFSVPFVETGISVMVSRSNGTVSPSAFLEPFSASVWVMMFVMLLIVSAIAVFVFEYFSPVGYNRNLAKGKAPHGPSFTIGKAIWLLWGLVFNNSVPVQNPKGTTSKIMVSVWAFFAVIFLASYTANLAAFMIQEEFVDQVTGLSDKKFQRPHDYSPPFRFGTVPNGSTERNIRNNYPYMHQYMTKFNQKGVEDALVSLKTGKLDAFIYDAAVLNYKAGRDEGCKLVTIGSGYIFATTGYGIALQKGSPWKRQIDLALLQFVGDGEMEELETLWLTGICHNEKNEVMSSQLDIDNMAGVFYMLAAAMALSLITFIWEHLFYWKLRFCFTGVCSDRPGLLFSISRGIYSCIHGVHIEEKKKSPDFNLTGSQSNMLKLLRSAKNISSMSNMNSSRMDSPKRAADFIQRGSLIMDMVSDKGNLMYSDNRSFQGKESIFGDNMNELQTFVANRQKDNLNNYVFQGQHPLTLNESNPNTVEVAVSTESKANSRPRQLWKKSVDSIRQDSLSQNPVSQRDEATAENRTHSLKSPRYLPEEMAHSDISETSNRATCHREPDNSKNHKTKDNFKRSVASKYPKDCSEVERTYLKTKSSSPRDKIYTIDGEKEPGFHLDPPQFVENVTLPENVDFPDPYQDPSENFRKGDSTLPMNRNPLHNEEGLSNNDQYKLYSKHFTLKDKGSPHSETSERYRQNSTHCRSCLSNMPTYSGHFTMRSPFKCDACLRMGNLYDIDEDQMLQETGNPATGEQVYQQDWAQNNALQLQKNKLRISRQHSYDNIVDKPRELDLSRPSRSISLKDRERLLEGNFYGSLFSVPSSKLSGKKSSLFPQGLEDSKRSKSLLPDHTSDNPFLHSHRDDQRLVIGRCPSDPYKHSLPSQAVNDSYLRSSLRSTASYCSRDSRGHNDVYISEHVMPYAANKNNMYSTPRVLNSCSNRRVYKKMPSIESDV

SMILES	EC50 (Table 3) [µM]	EC50 (Table 2) [µM]	Max % (Table 2) [%]
N#CC1CC1c1c(C(F)(F)F)sc2nc(Cn3nc(C(F)(F)F)cc3Cl)c(F)c(=O)n12 (single isomer, unassigned) [compound 277]	0.155		
Cc1sc2nc(COc3ccc(F)cc3)cc(=O)n2c1C(=O)NCC#N [Example 1.1, N-(cyanomethyl)-7-((4-fluorophenoxy)methyl)-2-methyl-5-oxo-5H-thiazolo[3,2-a]pyrimidine-3-carboxamide]		9.6	63
CNC(=O)c1c(C)sc2nc(COc3ccc(F)cc3)cc(=O)n12 [Example 1.2, 7-(4-Fluorophenoxymethyl)-N,2-dimethyl-5-oxo-5H-[1,3]thiazolo[3,2-a]pyrimidine-3-carboxamide]			92
Cc1sc2nc(COc3ccc(F)cc3)cc(=O)n2c1C(=O)N1CCC1 [Example 1.3, 3-[(Azetidin-1-yl)carbonyl]-7-(4-fluorophenoxymethyl)-2-methyl-5H-[1,3]thiazolo[3,2-a]pyrimidin-5-one]			45
CCNC(=O)c1c(C)sc2nc(COc3ccc(F)cc3)cc(=O)n12 [Example 1.4, N-ethyl-7-(4-fluorophenoxymethyl)-2-methyl-5-oxo-5H-[1,3]thiazolo[3,2-a] pyrimidine-3-carboxamide]		11.2	59.5
Cc1sc2nc(COc3ccc(F)cc3)cc(=O)n2c1C(=O)NCC(F)(F)F [Example 1.5, 7-(4-Fluorophenoxymethyl)-2-methyl-5-oxo-N-(2,2,2-trifluoroethyl)-5H-[1,3]thiazolo[3,2-a]pyrimidine-3-carboxamide]		23	51.4
CNC(=O)c1c(C)sc2nc(COc3ccc(F)c(F)c3)cc(=O)n12 [Example 1.6, 7-(3,4-Difluorophenoxymethyl)-N,2-dimethyl-5-oxo-5H-[1,3]thiazolo[3,2-a] pyrimidine-3-carboxamide]		31.6	64
CCNC(=O)c1csc2nc(COc3ccc(F)cc3)cc(=O)n12 [Example 1.7, N-ethyl-7-(4-fluorophenoxymethyl)-5-oxo-5H-[1,3]thiazolo[3,2-a]pyrimidine-3-carboxamide]		27	44.8
Cc1sc2nc(COc3ccc(F)cc3)cc(=O)n2c1C(N)=O [Example 1.8, 7-((4-fluorophenoxy)methyl)-2-methyl-5-oxo-5H-thiazolo[3,2-a]pyrimidine-3-carboxamide]		26.3	47.4
Cc1sc2nc(COc3ccc(F)cc3)cc(=O)n2c1C(=O)NO [Example 1.9, 7-((4-fluorophenoxy)methyl)-N-hydroxy-2-methyl-5-oxo-5H-thiazolo[3,2-a] pyrimidine-3-carboxamide]			99.5
Cc1sc2nc(COc3ccc(F)cc3)cc(=O)n2c1C(=O)NC(C)C [Example 1.10, 7-(4-Fluorophenoxymethyl)-2-methyl-5-oxo-N-(propan-2-yl)-5H-[1,3]thiazolo[3,2-a] pyrimidine-3-carboxamide]			44
Cc1sc2nc(COc3ccc(F)cc3)cc(=O)n2c1C(=O)NCCO [Example 1.11, 7-(4-Fluorophenoxymethyl)-N-(2-hydroxyethyl)-2-methyl-5-oxo-5H-[1,3]thiazolo[3,2-a]pyrimidine-3-carboxamide]			73
Cc1sc2nc(COc3ccc(F)cc3)cc(=O)n2c1C(=O)NC(C)CO (stereo not shown) [Example 1.12, 7-(4-Fluorophenoxymethyl)-N-(1-hydroxypropan-2-yl)-2-methyl-5-oxo-5H-[1,3]thiazolo[3,2-a]pyrimidine-3-carboxamide]			45.5
Cc1sc2nc(COc3ccc(F)cc3)cc(=O)n2c1C(=O)NCC1COC1 [Example 1.13, 7-((4-fluorophenoxy)methyl)-2-methyl-N-(oxetan-3-ylmethyl)-5-oxo-5H-thiazolo[3,2-a]pyrimidine-3-carboxamide]			41.6
Cc1sc2nc(COc3ccc(F)cc3)cc(=O)n2c1C(=O)NCCCO [Example 1.14, 7-((4-fluorophenoxy)methyl)-N-(3-hydroxypropyl)-2-methyl-5-oxo-5H-thiazolo[3,2-a]pyrimidine-3-carboxamide]			42.7
Cc1sc2nc(COc3ccc(F)cc3)cc(=O)n2c1C(=O)NC1CC1 [Example 1.15, N-cyclopropyl-7-((4-fluorophenoxy)methyl)-2-methyl-5-oxo-5H-thiazolo[3,2-a]pyrimidine-3-carboxamide]			55.1
CONC(=O)c1c(C)sc2nc(COc3ccc(F)cc3)cc(=O)n12 [Example 1.16, 7-((4-fluorophenoxy)methyl)-N-methoxy-2-methyl-5-oxo-5H-thiazolo[3,2-a] pyrimidine-3-carboxamide]			56.5
CNC(=S)c1c(C)sc2nc(COc3ccc(F)cc3)cc(=O)n12 [Example 1.17, 7-(4-Fluorophenoxymethyl)-N,2-dimethyl-5-oxo-5H-[1,3]thiazolo[3,2-a]pyrimidine-3-carbothioamide]		4	68.6

Results, then the compound that gave them:

EC50 (Table 3) [µM]	EC50 (Table 2) [µM]	Max % (Table 2) [%]	SMILES
	25.3		Cc1sc2nc(Cc3cccc(C(F)(F)F)c3F)cc(=O)n2c1C(C)O (single isomer, unassigned; enantiomer 1) [Example 27.11, 7-(2-fluoro-3-(trifluoromethyl)benzyl)-3-(1-hydroxyethyl)-2-methyl-5H-thiazolo[3,2-a]pyrimidin-5-one (enantiomer 1)]
	40.8		Cc1sc2nc(Cc3cccc(C(F)(F)F)c3F)cc(=O)n2c1C(C)O (single isomer, unassigned; enantiomer 2) [Example 27.12, 7-(2-fluoro-3-(trifluoromethyl)benzyl)-3-(1-hydroxyethyl)-2-methyl-5H-thiazolo[3,2-a]pyrimidin-5-one (enantiomer 2)]
	5.2	51.3	CCC(=O)c1c(C)sc2nc(COc3ccc(F)cc3)cc(=O)n12 [Example 2.1, 7-((4-fluorophenoxy)methyl)-2-methyl-3-propionyl-5H-thiazolo[3,2-a]pyrimidin-5-one]
		96.5	CCC(O)c1c(C)sc2nc(COc3ccc(F)cc3)cc(=O)n12 (stereo not shown) [Example 2.2, 7-((4-fluorophenoxy)methyl)-3-(1-hydroxypropyl)-2-methyl-5H-thiazolo[3,2-a]pyrimidin-5-one]
	12.6	49.8	Cc1sc2nc(COc3ccc(F)cc3)cc(=O)n2c1C(C)O (stereo not shown) [Example 2.3, 7-(4-Fluorophenoxymethyl)-3-(1-hydroxyethyl)-2-methyl-5H-[1,3]thiazolo[3,2-a]pyrimidin-5-one]
	3	44.6	Cc1sc2nc(COc3ccc(F)cc3)cc(=O)n2c1C(C)(C)O [Example 2.4, 7-(4-Fluorophenoxymethyl)-3-(2-hydroxypropan-2-yl)-2-methyl-5H-[1,3]thiazolo[3,2-a]pyrimidin-5-one]
	32.9	115	CC(=O)c1c(C)sc2nc(COc3ccc(F)cc3)cc(=O)n12 [Example 2.5, 3-acetyl-7-((4-fluorophenoxy)methyl)-2-methyl-5H-thiazolo[3,2-a]pyrimidin-5-one]
	19.6	59.9	CNC(=O)Cc1c(C)sc2nc(COc3ccc(F)cc3)cc(=O)n12 [Example 2.6, 2-(7-((4-fluorophenoxy)methyl)-2-methyl-5-oxo-5H-thiazolo[3,2-a]pyrimidin-3-yl)-N-methylacetamide]
	26	61.3	Cc1sc2nc(COc3ccc(F)cc3)cc(=O)n2c1C(=O)C1CC1 [Example 2.7, 3-Cyclopropanecarbonyl-7-(4-fluorophenoxymethyl)-2-methyl-5H-[1,3]thiazolo[3,2-a]pyrimidin-5-one]
		137	C/C(=N\O)c1c(C)sc2nc(COc3ccc(F)cc3)cc(=O)n12 [Example 2.8, 7-(4-Fluorophenoxymethyl)-3-[1-(hydroxyimino)ethyl]-2-methyl-5H-[1,3]thiazolo[3,2-a]pyrimidin-5-one]
		56.4	Cc1sc2nc(COc3ccc(F)cc3)cc(=O)n2c1C(=O)C1COC1 [Example 2.9, 7-((4-fluorophenoxy)methyl)-2-methyl-3-(oxetane-3-carbonyl)-5H-thiazolo[3,2-a]pyrimidin-5-one]
		119	Cc1sc2nc(COc3ccc(F)cc3)cc(=O)n2c1C(O)C(F)(F)F (stereo not shown) [Example 2.10, 7-((4-fluorophenoxy)methyl)-2-methyl-3-(2,2,2-trifluoro-1-hydroxyethyl)-5H-thiazolo[3,2-a]pyrimidin-5-one]
		87.4	Cc1sc2nc(COc3ccc(F)cc3)cc(=O)n2c1C(=O)C(F)(F)F [Example 2.11, 7-(4-Fluorophenoxymethyl)-2-methyl-3-(trifluoroacetyl)-5H-[1,3]thiazolo[3,2-a]pyrimidin-5-one]
	41	56.2	CCNC(=O)c1c(C2CC2)sc2nc(COc3ccc(F)cc3)cc(=O)n12 [Example 3.1, 2-cyclopropyl-N-ethyl-7-((4-fluorophenoxy)methyl)-5-oxo-5H-thiazolo[3,2-a]pyrimidine-3-carboxamide]
	10.1	42.7	CNC(=O)c1c(C(F)(F)F)sc2nc(COc3ccc(F)cc3)cc(=O)n12 [Example 3.2, 7-(4-Fluorophenoxymethyl)-N-methyl-5-oxo-2-(trifluoromethyl)-5H-[1,3]thiazolo[3,2-a]pyrimidine-3-carboxamide]
		61.8	CNC(=O)c1c(C2CC2)sc2nc(COc3ccc(F)cc3)cc(=O)n12 [Example 3.3, 2-Cyclopropyl-7-(4-fluorophenoxymethyl)-N-methyl-5-oxo-5H-[1,3]thiazolo[3,2-a]pyrimidine-3-carboxamide]
